Measured values as given in PubChem BioAssay AID1745844 (Carcinogenic Potency Database (CPDB), 2022).
“And” between values parts separate entries of the source, which are not always exact repeats. Equal values may be shown once. The source made the active and inactive calls. No rule for the calls is given here.

Test system: rodent lifetime carcinogenesis bioassay, tumor incidence TD50
Assay: carcinogenic potency in animals, long-term in vivo studies, CPDB compilation (AID 1745844)

CC(C)CCCCCCOC(=O)c1ccccc1C(=O)OCCCCCCC(C)C
TD50 (mouse, strain B6C3F1, females, in feed, site: liver, lesion: hepatocellular carcinoma, dosed 78 weeks, study length 104 weeks): 3340 mg/kg/day | TD50 (mouse, strain B6C3F1, females, in feed, site: liver, lesion: hepatocellular carcinoma, dosed 79 weeks, study length 79 weeks): 5240 mg/kg/day | TD50 (mouse, strain B6C3F1, females, in feed, site: liver, lesion: hepatocellular carcinoma, dosed 104 weeks, study length 104 weeks): 2620 mg/kg/day | TD50 (mouse, strain B6C3F1, females, in feed, site: liver, lesion: several types, types named in the paper, dosed 79 weeks, study length 79 weeks): 2860 mg/kg/day | TD50 (mouse, strain B6C3F1, females, in feed, site: liver, lesion: several types, types named in the paper, dosed 104 weeks, study length 104 weeks): 1440 mg/kg/day | TD50 (mouse, strain B6C3F1, males, in feed, site: liver, lesion: hepatocellular carcinoma, dosed 78 weeks, study length 104 weeks): 4100 mg/kg/day | TD50 (mouse, strain B6C3F1, males, in feed, site: liver, lesion: hepatocellular carcinoma, dosed 79 weeks, study length 79 weeks): 1460 mg/kg/day | TD50 (mouse, strain B6C3F1, males, in feed, site: liver, lesion: hepatocellular carcinoma, dosed 104 weeks, study length 104 weeks): 2920 mg/kg/day | TD50 (mouse, strain B6C3F1, males, in feed, site: liver, lesion: several types, types named in the paper, dosed 79 weeks, study length 79 weeks): 1460 mg/kg/day | TD50 (mouse, strain B6C3F1, males, in feed, site: liver, lesion: several types, types named in the paper, dosed 104 weeks, study length 104 weeks): 1590 mg/kg/day | TD50 (rat, strain Fischer 344, females, in feed, site: all sites, lesion: mononuclear-cell leukemia, dosed 78 weeks, study length 104 weeks): 1140 mg/kg/day | TD50 (rat, strain Fischer 344, females, in feed, site: all sites, lesion: mononuclear-cell leukemia, dosed 79 weeks, study length 79 weeks): 1690 mg/kg/day | TD50 (rat, strain Fischer 344, females, in feed, site: all sites, lesion: mononuclear-cell leukemia, dosed 104 weeks, study length 104 weeks): 458 mg/kg/day and 1150 mg/kg/day | TD50 (rat, strain Fischer 344, females, in feed, site: liver, lesion: hepatocellular adenoma, dosed 79 weeks, study length 79 weeks): 3440 mg/kg/day | TD50 (rat, strain Fischer 344, females, in feed, site: liver, lesion: hepatocellular carcinoma, dosed 78 weeks, study length 104 weeks): 14300 mg/kg/day | TD50 (rat, strain Fischer 344, females, in feed, site: liver, lesion: hepatocellular carcinoma, dosed 104 weeks, study length 104 weeks): 7980 mg/kg/day | TD50 (rat, strain Fischer 344, males, in feed, site: all sites, lesion: mononuclear-cell leukemia, dosed 78 weeks, study length 104 weeks): 445 mg/kg/day | TD50 (rat, strain Fischer 344, males, in feed, site: kidney, lesion: tubular carcinoma, dosed 78 weeks, study length 104 weeks): 2960 mg/kg/day | TD50 (rat, strain Fischer 344, males, in feed, site: kidney, lesion: tubular carcinoma, dosed 104 weeks, study length 104 weeks): 17200 mg/kg/day | TD50 (rat, strain Fischer 344, males, in feed, site: liver, lesion: hepatocellular carcinoma, dosed 78 weeks, study length 104 weeks): 9740 mg/kg/day | TD50 (rat, strain Fischer 344, males, in feed, site: liver, lesion: hepatocellular carcinoma, dosed 79 weeks, study length 79 weeks): 2750 mg/kg/day | TD50 (rat, strain Fischer 344, males, in feed, site: liver, lesion: hepatocellular carcinoma, dosed 104 weeks, study length 104 weeks): 2640 mg/kg/day

CNCCc1ccc(OC(=O)C(C)C)c(OC(=O)C(C)C)c1
carcinogen call (rat, strain Charles River CD (Sprague-Dawley), females, by gavage, site: adrenal gland, lesion: cortical adenoma, dosed 104 weeks, study length 104 weeks): negative (inactive) | carcinogen call (rat, strain Charles River CD (Sprague-Dawley), females, by gavage, site: adrenal gland, lesion: pheochromocytoma, malignant, dosed 104 weeks, study length 104 weeks): negative (inactive) | carcinogen call (rat, strain Charles River CD (Sprague-Dawley), females, by gavage, site: mammary gland, lesion: adenocarcinoma, dosed 104 weeks, study length 104 weeks): negative (inactive) | carcinogen call (rat, strain Charles River CD (Sprague-Dawley), females, by gavage, site: mammary gland, lesion: adenoma, dosed 104 weeks, study length 104 weeks): negative (inactive) | carcinogen call (rat, strain Charles River CD (Sprague-Dawley), females, by gavage, site: pituitary gland, lesion: adenoma, dosed 104 weeks, study length 104 weeks): negative (inactive) | carcinogen call (rat, strain Charles River CD (Sprague-Dawley), males, by gavage, site: adrenal gland, lesion: cortical adenoma, dosed 104 weeks, study length 104 weeks): negative (inactive) | carcinogen call (rat, strain Charles River CD (Sprague-Dawley), males, by gavage, site: adrenal gland, lesion: pheochromocytoma, malignant, dosed 104 weeks, study length 104 weeks): negative (inactive) | TD50 (rat, strain Charles River CD (Sprague-Dawley), males, by gavage, site: pituitary gland, lesion: adenoma, dosed 104 weeks, study length 104 weeks): 30.2 mg/kg/day (inactive)

CCCN(N=O)C(N)=O
carcinogen call (rat, strain F344/DuCrj, females, in drinking water, site: thymus gland, lesion: lymphoma, dosed 70 weeks, study length 70 weeks): positive | carcinogen call (rat, strain F344/DuCrj, females, in drinking water, site: thymus gland, lesion: lymphoma, dosed 75 weeks, study length 75 weeks): positive | carcinogen call (rat, strain F344/DuCrj, males, in drinking water, site: thymus gland, lesion: lymphoma, dosed 70 weeks, study length 70 weeks): positive | carcinogen call (rat, strain F344/DuCrj, males, in drinking water, site: thymus gland, lesion: lymphoma, dosed 75 weeks, study length 75 weeks): positive

c1ccc2ccccc2c1
TD50 (mouse, strain B6C3F1, females, inhaled, site: any site (literature study), lesion: several types, types named in the paper, dosed 103 weeks, study length 104 weeks): 128 mg/kg/day | TD50 (mouse, strain B6C3F1, females, inhaled, site: lung, lesion: alveolar/bronchiolar adenoma + alveolar/bronchiolar carcinoma, dosed 103 weeks, study length 104 weeks): 163 mg/kg/day | TD50 (mouse, strain B6C3F1, females, inhaled, site: lung, lesion: alveolar/bronchiolar adenoma, dosed 103 weeks, study length 104 weeks): 171 mg/kg/day | TD50 (mouse, strain B6C3F1, females, inhaled, site: lung, lesion: alveolar/bronchiolar carcinoma, dosed 103 weeks, study length 104 weeks): 4020 mg/kg/day | carcinogen call (mouse, strain B6C3F1, males, inhaled, site: any site (literature study), lesion: several types, types named in the paper, dosed 103 weeks, study length 104 weeks): negative (inactive) | TD50 (rat, strain Fischer 344, females, inhaled, site: nasal cavity, olfactory epithelium + nasal cavity, respiratory epithelium, lesion: neuroblastoma + adenoma, dosed 105 weeks, study length 105 weeks): 37.3 mg/kg/day | TD50 (rat, strain Fischer 344, females, inhaled, site: nasal cavity, olfactory epithelium, lesion: neuroblastoma, dosed 105 weeks, study length 105 weeks): 52.9 mg/kg/day | TD50 (rat, strain Fischer 344, females, inhaled, site: nasal cavity, respiratory epithelium, lesion: adenoma, dosed 105 weeks, study length 105 weeks): 121 mg/kg/day | TD50 (rat, strain Fischer 344, males, inhaled, site: any site (literature study), lesion: several types, types named in the paper, dosed 104 weeks, study length 104 weeks): 27.5 mg/kg/day | TD50 (rat, strain Fischer 344, males, inhaled, site: liver, lesion: hepatocellular adenoma + hepatoblastoma + hepatocellular carcinoma, dosed 104 weeks, study length 104 weeks): 171 mg/kg/day | TD50 (rat, strain Fischer 344, males, inhaled, site: mammary gland, lesion: fibroadenoma, dosed 104 weeks, study length 104 weeks): 133 mg/kg/day | TD50 (rat, strain Fischer 344, males, inhaled, site: nasal cavity, olfactory epithelium + nasal cavity, respiratory epithelium, lesion: neuroblastoma + adenoma, dosed 104 weeks, study length 104 weeks): 12.3 mg/kg/day | TD50 (rat, strain Fischer 344, males, inhaled, site: nasal cavity, olfactory epithelium, lesion: neuroblastoma, dosed 104 weeks, study length 104 weeks): 88 mg/kg/day | TD50 (rat, strain Fischer 344, males, inhaled, site: nasal cavity, respiratory epithelium, lesion: adenoma, dosed 104 weeks, study length 104 weeks): 14 mg/kg/day

CCCCOC(=O)COc1ccc(Cl)cc1Cl
carcinogen call (mouse, strain B6AKF1, females, oral dosing, site: any site (literature study), lesion: several types, types named in the paper, dosed 76 weeks, study length 76 weeks): negative (inactive) | carcinogen call (mouse, strain B6AKF1, females, oral dosing, site: liver, lesion: hepatoma, dosed 76 weeks, study length 76 weeks): negative (inactive) | carcinogen call (mouse, strain B6AKF1, females, oral dosing, site: lung, lesion: adenoma, dosed 76 weeks, study length 76 weeks): negative (inactive) | carcinogen call (mouse, strain B6AKF1, males, oral dosing, site: any site (literature study), lesion: several types, types named in the paper, dosed 76 weeks, study length 76 weeks): negative (inactive) | carcinogen call (mouse, strain B6AKF1, males, oral dosing, site: liver, lesion: hepatoma, dosed 76 weeks, study length 76 weeks): negative (inactive) | carcinogen call (mouse, strain B6AKF1, males, oral dosing, site: lung, lesion: adenoma, dosed 76 weeks, study length 76 weeks): negative (inactive) | TD50 (mouse, strain B6C3F1, females, oral dosing, site: any site (literature study), lesion: several types, types named in the paper, dosed 76 weeks, study length 76 weeks): 29.7 mg/kg/day (inactive) | carcinogen call (mouse, strain B6C3F1, females, oral dosing, site: liver, lesion: hepatoma, dosed 76 weeks, study length 76 weeks): negative (inactive) | carcinogen call (mouse, strain B6C3F1, females, oral dosing, site: lung, lesion: several types, types named in the paper, dosed 76 weeks, study length 76 weeks): negative (inactive) | TD50 (mouse, strain B6C3F1, males, oral dosing, site: any site (literature study), lesion: several types, types named in the paper, dosed 76 weeks, study length 76 weeks): 38.1 mg/kg/day (inactive) | TD50 (mouse, strain B6C3F1, males, oral dosing, site: liver, lesion: hepatoma, dosed 76 weeks, study length 76 weeks): 122 mg/kg/day (inactive) | TD50 (mouse, strain B6C3F1, males, oral dosing, site: lung, lesion: adenoma, dosed 76 weeks, study length 76 weeks): 59 mg/kg/day (inactive)

O=C(O)CNCC(=O)O
TD50 (rat, strain MRC, females, in drinking water, site: any site (literature study), lesion: several types, types named in the paper, dosed 84 weeks, study length 104 weeks): 143 mg/kg/day (inactive) | carcinogen call (rat, strain MRC, males, in drinking water, site: any site (literature study), lesion: several types, types named in the paper, dosed 84 weeks, study length 104 weeks): negative (inactive)

P
TD50 (rat, strain Fischer 344, females, inhaled, site: liver, lesion: hepatocellular adenoma, dosed 104 weeks, study length 104 weeks): 53.1 mg/kg/day (inactive) | carcinogen call (rat, strain Fischer 344, females, inhaled, site: liver, lesion: one or several types, types not named, dosed 52 weeks, study length 52 weeks): negative (inactive) | TD50 (rat, strain Fischer 344, males, inhaled, site: liver, lesion: hepatocellular adenoma, dosed 104 weeks, study length 104 weeks): 5.69 mg/kg/day (inactive) | carcinogen call (rat, strain Fischer 344, males, inhaled, site: liver, lesion: hepatocellular carcinoma, dosed 104 weeks, study length 104 weeks): negative (inactive) | carcinogen call (rat, strain Fischer 344, males, inhaled, site: liver, lesion: one or several types, types not named, dosed 52 weeks, study length 52 weeks): negative (inactive) | carcinogen call (rat, strain Sprague-Dawley, females, in feed, site: any site (literature study), lesion: one or several types, types not named, dosed 52 weeks, study length 52 weeks): negative (inactive) | carcinogen call (rat, strain Sprague-Dawley, females, in feed, site: any site (literature study), lesion: several types, types named in the paper, dosed 104 weeks, study length 104 weeks): negative (inactive) | carcinogen call (rat, strain Sprague-Dawley, males, in feed, site: any site (literature study), lesion: one or several types, types not named, dosed 52 weeks, study length 52 weeks): negative (inactive) | carcinogen call (rat, strain Sprague-Dawley, males, in feed, site: any site (literature study), lesion: several types, types named in the paper, dosed 104 weeks, study length 104 weeks): negative (inactive)

C[C@](N)(Cc1ccc(O)c(O)c1)C(=O)O
carcinogen call (mouse, strain B6C3F1, females, in feed, site: any site (literature study), lesion: several types, types named in the paper, dosed 103 weeks, study length 104 weeks): negative (inactive) | TD50 (mouse, strain B6C3F1, females, in feed, site: lung, lesion: alveolar/bronchiolar adenoma + alveolar/bronchiolar carcinoma, dosed 103 weeks, study length 104 weeks): 25000 mg/kg/day | TD50 (mouse, strain B6C3F1, males, in feed, site: kidney, lesion: tubular-cell adenoma + tubular-cell adenocarcinoma, dosed 103 weeks, study length 104 weeks): 20100 mg/kg/day | TD50 (rat, strain Fischer 344, females, in feed, site: any site (literature study), lesion: several types, types named in the paper, dosed 103 weeks, study length 104 weeks): 592 mg/kg/day (inactive) | carcinogen call (rat, strain Fischer 344, males, in feed, site: any site (literature study), lesion: several types, types named in the paper, dosed 103 weeks, study length 104 weeks): negative (inactive)
